According to PMC8222276 (Communications Biology, 2021):

Tests used:
[1] = system: human cardiomyocytes (HCMs); experiment: cell proliferation (72 h) of HCMs; format: cell-based; conditions: HCM
Description: (§1) Data are analysed using a three-parameter non-linear regression curve or the operational model of receptor agonism. g, h Signalling bias plots were calculated as ∆Log(τ/KA) (g) or ∆∆Log(τ/KA) (h) for each agonist and for each signalling pathway. […] All data represent mean ± SEM for n repeats.
(§2) Both endothelial cell lines and HCMs were seeded at a density of 2500 cells/well in a clear flat bottom 96-well plate (Corning, UK) and incubated at 37 °C in 5% CO2. After 24 h, cells were exposed to test compounds or vehicle, in complete endothelial cell growth media (HUVECs) or myocyte growth media (HCMs). Cells were incubated for a further 72 h at 37 °C in 5% CO2. After 72 h incubation, 5 μl of Cell Counting Kit–8 (CCK-8, Sigma, UK) was added to each well and cells were then incubated for another 2 h at 37 °C in 5% CO2 and in the dark[61]. The absorbance of each well was measured using a Mithras LB940 microplate reader with an excitation of 450 nm. The absorbance is directly proportional to the number of viable cells. Cell proliferation was calculated as a percentage of number of cells treated with vehicle alone.
(§3) All sample sizes were determined, and data analysed, in accordance with the guidelines described by Curtis M et al.[65]. All experiments were appropriately controlled using ‘system pathway’ agonists. If any of these pathway controls generated inappropriate responses, then the entire data set was removed from analysis. […] Data analysis for cAMP accumulation, Ca^2+i mobilisation, NO accumulation, pERK1/2 activation, and cell proliferation assays were performed in GraphPad Prism 8.4 (GraphPad Software, San Diego). Data were fitted to obtain concentration–response curves using either the three-parameter logistic equation using to obtain values of Emax and pEC50 or the operational model of agonism. Statistical differences were analysed using one-way ANOVA followed by Dunnett’s post-hoc (for comparisons amongst more than two groups) or unpaired Student’s t test with Welch’s correction (for comparison between two groups). To account for the day-to-day variation experienced from the cultured cells, we used the maximal level of cAMP accumulation from cells in response to 100 μM forskolin stimulation was used as a reference, 10 μM ionomycin for Ca^2+i assays, 10 μM phorbol 12-myristate 13-acetate (PMA) for pERK1/2 activation, 10 μM acetylcholine for NO production and 10 μM VEGF for cell proliferation. […] Where appropriate the operational model for receptor agonism[27] was used to obtain efficacy (τ) and equilibrium disassociation constant (KA) values. In both cases, this normalisation removes the variation due to differences in days but retains the variance for control values. The means of individual experiments were combined to generate the curves shown. Having obtained values for τ and KA these were then used to quantify signalling bias as the change in Log(τ/KA)[19],[28]. Error for this composite measure was propagated by applying Eq. 1.1 PooledSEM=(SEMA)^2+(SEMB)^2 Where, SEMA and SEMB are the standard error of measurement A and B.

[2] = target: T1, AM1 receptor (CLR-RAMP2) in HUVECs (Homo sapiens, UniProt O60895+Q16602); experiment: total nitric oxide production in HUVECs; format: cell-based; conditions: HUVEC
T1 construct: HUVECs specifically express the AM1 receptor alone; host or cells: primary HUVECs
T1 sequence (Q16602 23-461): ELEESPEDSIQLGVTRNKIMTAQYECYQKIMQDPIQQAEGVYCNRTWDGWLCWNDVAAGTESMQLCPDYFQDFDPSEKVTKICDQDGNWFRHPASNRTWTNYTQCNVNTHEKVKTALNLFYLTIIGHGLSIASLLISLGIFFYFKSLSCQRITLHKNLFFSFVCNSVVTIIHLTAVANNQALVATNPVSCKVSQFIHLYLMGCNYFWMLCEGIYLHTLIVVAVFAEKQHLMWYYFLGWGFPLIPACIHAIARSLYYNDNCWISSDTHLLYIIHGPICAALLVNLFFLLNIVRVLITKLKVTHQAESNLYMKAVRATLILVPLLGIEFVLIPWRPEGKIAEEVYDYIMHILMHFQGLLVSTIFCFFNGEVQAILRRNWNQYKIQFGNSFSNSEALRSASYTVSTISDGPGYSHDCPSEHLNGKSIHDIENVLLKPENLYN
T1 sequence (O60895 43-175): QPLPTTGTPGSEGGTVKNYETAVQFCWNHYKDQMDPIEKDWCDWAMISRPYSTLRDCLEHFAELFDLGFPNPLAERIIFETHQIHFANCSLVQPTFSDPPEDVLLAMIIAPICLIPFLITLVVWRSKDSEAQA
Description: as §1, with “g–h” for “g, h”, “Solid arrows indicate known pathways. Dashed arrows” for “All data”, “possible pathways.” for “mean ± SEM for n repeats.”
(§4) Endothelial cells and HCMs were cultured as above. 24 h prior to assay cells were plated on Costar 96-well black clear bottom plates at 40,000 cells/well. The assay was performed according to the manufacturer’s protocol. Briefly, cells pre-incubated with NO dye and assay buffer 1 (Fluorometric Nitric Oxide Assay Kit, Abcam, UK) for 30 min at 37 °C in 5% CO2. Any inhibitors requiring 30 min pre-treatment (YM/L-NAME/DMSO control) were added at this point. Ligand stimulation occurred immediately after this for 15 min at 37 °C in 5% CO2. Stain and ligand solution was removed, assay buffer II was added, and wells were read immediately. The absorbance was measured using a Tecan T200 (Thermo Fisher Scientific UK) reader with an excitation/emission of 540/590 nm. Endothelial cell responses were normalised to 10 μM acetylcholine. HCM responses were normalised to 10 μM isoproterenol[63],[64].
as §3

HUAECs = experiment: cell proliferation (72 h) of HUAECs; format: cell-based, human; conditions: HUAEC
Description: as §2, §3
(1 picture or pasted object on this page, not shown here)

heart = conditions: cited from earlier work
[3] = target: T2, CGRP receptor (CLR-RAMP1) in human cardiomyocytes (HCMs) (Homo sapiens, UniProt O60894+Q16602); experiment: total NO production in HCMs; format: cell-based; conditions: HCM, 15 min, relative to 10 μM isoproterenol, mean ± SEM
T2 construct: primary human cardiomyocytes (HCMs) since these cells only expressed CLR and RAMP1; host or cells: primary human cardiomyocytes (HCMs)
T2 sequence (Q16602 23-461): as the sequence (Q16602 23-461) above
T2 sequence (O60894 27-148): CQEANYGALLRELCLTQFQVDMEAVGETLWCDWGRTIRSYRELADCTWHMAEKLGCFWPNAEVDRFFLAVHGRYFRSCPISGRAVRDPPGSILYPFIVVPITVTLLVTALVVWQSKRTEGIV
Description: as §1
as §4, with “Any inhibitors requiring 30 min pre-treatment (YM/L-NAME/DMSO control) were added at this point. Ligand stimulation occurred immediately after this for 15 min at 37 °C in 5% CO2.” left out, “Endothelial cell responses were normalised to 10 μM acetylcholine. HCM responses were normalised to 10 μM isoproterenol[63],[64].” left out
(§5) All sample sizes were determined, and data analysed, in accordance with the guidelines described by Curtis M et al.[65]. […] Statistical differences were analysed using one-way ANOVA followed by Dunnett’s post-hoc (for comparisons amongst more than two groups) or unpaired Student’s t test with Welch’s correction (for comparison between two groups). […] Having obtained values for τ and KA these were then used to quantify signalling bias as the change in Log(τ/KA)[19],[28]. […]

[4] = target: T2, CGRP receptor (CLR-RAMP1) in human cardiomyocytes (HCMs); experiment: cAMP accumulation in HCMs; format: cell-based; conditions: HCM, 30 min, relative to 100 μM forskolin, mean ± SEM
Description: as §1
All primary cell lines were cultured as above. On the day of the experiment media was removed and cells washed with PBS, before being dissociated with Trypsin-EDTA 0.05% (Gibco, UK) and then resuspended in PBS/BSA (0.1%) (Sigma, UK). […] Plates were incubated for a further 60 min (room temperature) and then read on a plate reader (Mithras LB 940 microplate reader (Berthold technologies, Germany)). […]
as §5

[5] = proliferation, 72 h, CCK-8, mean ± SEM
[6] = proliferation, 72 h, mean ± SEM of 3-6 data sets
[7] = proliferation, operational model, mean ± SEM
[8] = NO, operational model, mean ± SEM

SMILES | Transducer coefficient Log(τ/KA) ([1]; Growth, calculated from Table S2) | Emax [1, 5] [%] | pEC50 [1, 6] | logτ [1, 7] | pKA [1, 7] | Emax [2] [%] | order of potencies for NO synthesis [2] | Transducer coefficient Log(τ/KA) ([2]; NO, calculated from Table S1) | logτ [2, 8] | pKA [2, 8] | Transducer coefficient Log(τ/KA) (HUAECs; Growth, calculated from Table S1) | Emax (HUAECs; [5]) [%] | pEC50 (HUAECs; [6]) | logτ (HUAECs; [7]) | pKA (HUAECs; [7]) | effect of protein kinase inhibitors on contraction effect (heart) | Emax [3] [%] | Emax [4] [%]
CSCC[C@H](NC(=O)[C@H](CC(C)C)NC(=O)[C@H](CCC(N)=O)NC(=O)[C@H](Cc1c[nH]c2ccccc12)NC(=O)[C@H](CC(C)C)NC(=O)[C@H](CCCNC(=N)N)NC(=O)[C@H](Cc1c[nH]cn1)NC(=O)[C@H](CO)NC(=O)[C@H](CC(C)C)NC(=O)[C@H](CC(N)=O)NC(=O)[C@H](CCC(N)=O)NC(=O)[C@@H](NC(=O)[C@H](CCC(N)=O)NC(=O)[C@@H]1CSSC[C@H](NC(=O)CNC(=O)[C@@H](NC(=O)[C@H](CCCNC(=N)N)NC(=O)[C@H](CC(C)C)NC(=O)[C@H](CC(C)C)NC(=O)[C@H](CCC(N)=O)NC(=O)[C@H](C)NC(=O)[C@H](CCC(N)=O)NC(=O)[C@@H](N)[C@@H](C)O)C(C)C)C(=O)N[C@@H](C(C)C)C(=O)N[C@@H](CC(C)C)C(=O)NCC(=O)N[C@@H]([C@@H](C)O)C(=O)N1)C(C)C)C(=O)NCC(=O)N1CCC[C@H]1C(=O)N[C@@H](C)C(=O)NCC(=O)N[C@@H](CCCNC(=N)N)C(=O)N[C@@H](CCC(N)=O)C(=O)N[C@@H](CC(=O)O)C(=O)N[C@@H](CO)C(=O)N[C@@H](C)C(=O)N1CCC[C@H]1C(=O)N[C@H](C(=O)N[C@@H](CC(=O)O)C(=O)N1CCC[C@H]1C(=O)N[C@@H](CO)C(=O)N[C@@H](CO)C(=O)N1CCC[C@H]1C(=O)N[C@@H](Cc1c[nH]cn1)C(=O)N[C@@H](CO)C(=O)N[C@@H](Cc1ccc(O)cc1)C(N)=O)C(C)C [AM2, adrenomedullin 2] | 5.78±0.60 | 114.68±3.58 | 6.48±0.58 | -0.60±0.12 | 6.38±0.59 | 82.1 ± 4.62 | order of potencies AM2 > AM > CGRP | 6.80±0.17 | 0.65±0.09 | 6.15±0.15 | 5.81±1.89 | 111.68±1.62 | 6.87±0.48 | -1.10±0.26 | 6.91±1.87 | blocked by both inhibitors of both protein kinase A and C | – | –
CC[C@H](C)[C@H](NC(=O)[C@H](CCC(N)=O)NC(=O)[C@H](Cc1c[nH]cn1)NC(=O)[C@H](C)NC(=O)[C@H](CC(C)C)NC(=O)[C@H](CCCCN)NC(=O)[C@H](CCC(N)=O)NC(=O)[C@@H](NC(=O)[C@@H](NC(=O)[C@@H]1CSSC[C@H](NC(=O)CNC(=O)[C@H](Cc2ccccc2)NC(=O)[C@H](CO)NC(=O)[C@H](CCCNC(=N)N)NC(=O)[C@H](CC(C)C)NC(=O)CNC(=O)[C@H](CCC(N)=O)NC(=O)[C@H](Cc2ccccc2)NC(=O)[C@H](CC(N)=O)NC(=O)[C@H](CC(N)=O)NC(=O)[C@H](CCSC)NC(=O)[C@H](CO)NC(=O)[C@H](CCC(N)=O)NC(=O)[C@H](CCCNC(=N)N)NC(=O)[C@@H](N)Cc2ccc(O)cc2)C(=O)N[C@@H](CCCNC(=N)N)C(=O)N[C@@H](Cc2ccccc2)C(=O)NCC(=O)N[C@@H]([C@@H](C)O)C(=O)N1)[C@@H](C)O)C(C)C)C(=O)N[C@@H](Cc1ccc(O)cc1)C(=O)N[C@@H](CCC(N)=O)C(=O)N[C@@H](Cc1ccccc1)C(=O)N[C@H](C(=O)N[C@@H](CC(=O)O)C(=O)N[C@@H](CCCCN)C(=O)N[C@@H](CC(=O)O)C(=O)N[C@@H](CCCCN)C(=O)N[C@@H](CC(=O)O)C(=O)N[C@@H](CC(N)=O)C(=O)N[C@H](C(=O)N[C@@H](C)C(=O)N1CCC[C@H]1C(=O)N[C@@H](CCCNC(=N)N)C(=O)N[C@@H](CO)C(=O)N[C@@H](CCCCN)C(=O)N[C@H](C(=O)N[C@@H](CO)C(=O)N1CCC[C@H]1C(=O)N[C@@H](CCC(N)=O)C(=O)NCC(=O)N[C@@H](Cc1ccc(O)cc1)C(N)=O)[C@@H](C)CC)C(C)C)[C@@H](C)O [AM, adrenomedullin] | – | – | – | – | – | – | – | – | – | – | – | – | – | – | – | – | 47 ± 5.85 | 63 ± 3.14
